For this data set the following is noted: 293 K; 101.33 kPa; Crystal; X-ray diffraction.

Numbers after ± are expanded uncertainties.

Turning to `O=P([O-])([O-])[O-].[Er+3]` [erbium phosphate], the molar volume amounted to 4.271e-05 ± 5.1e-07 m3/mol.

For the origin of these results see the NIST ThermoML archive (doi:10.1016/j.tca.2012.02.002).
